Patent US20240368150A1 (Hoffmann-La Roche Inc., priority 2021, published 2024)
Read-outs that look alike come from different tables or passages of the source.

Assays:
primary human T-cells [1] = test: Proliferation assay after 5 days (CellTiter-Glo, CD3 stimulation; PBS counter screen); assay type: cell-based; details: Homo sapiens, T-cell, 120 h, CD3 stimulation; for Emax: 5 days, normalized to reference compound A1 as stimulator control = 100%, DMSO neutral control, read-out: Emax proliferation (% activation); for EC50: primary human T-cells, CellTiter-Glo after 5 days, EC50 of fitted sigmoidal curve, read-out: Tcell Proliferation CD3 EC50
Method in brief: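 Proliferation is measured 5 days post-treatment as ATP-dependent luminescence. Flags mark compounds that activated unstimulated cells or harmed viability.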

primary human T-cells [2] = system: primary human T-cells

EC50 (primary human T-cells [2]) [nM] | SMILES | Emax (primary human T-cells [1]) [%] | EC50 (primary human T-cells [1]) [nM]
161 | N[C@H]1CS(=O)(=O)c2cc(F)c(-c3nnc(C4CC5(C4)CC(F)(F)C5)o3)cc2N(Cc2ccc(Cl)cc2)C1=O [Example 94, (3R)-3-amino-5-[(4-chlorophenyl)methyl]-7-[5-(2,2-difluorospiro[3.3]heptan-6-yl)-1,3,4-oxadiazol-2-yl]-8-fluoro-1,1-dioxo-2,3-dihydro-1λ^6,5-benzothiazepin-4-one] | 85 | 18.1
5360 | CS(=O)(=O)CCc1nnc(-c2cc3c(cc2F)S(=O)(=O)C[C@H](N)C(=O)N3Cc2ccc(Cl)cc2)o1 [Example 95, (3R)-3-amino-5-[(4-chlorophenyl)methyl]-8-fluoro-7-[5-(2-methylsulfonylethyl)-1,3,4-oxadiazol-2-yl]-1,1-dioxo-2,3-dihydro-1λ^6,5-benzothiazepin-4-one] | 67 | 6160
1040 | N[C@H]1CS(=O)(=O)c2cc(F)c(-c3nnc(-c4ccccc4)o3)cc2N(Cc2ccc(Cl)cc2)C1=O [Example 97, (3R)-3-amino-5-[(4-chlorophenyl)methyl]-8-fluoro-1,1-dioxo-7-(5-phenyl-1,3,4-oxadiazol-2-yl)-2,3-dihydro-1λ^6,5-benzothiazepin-4-one] | 115 | 520
71.2 | Cc1ccccc1-c1nnc(-c2cc3c(cc2F)S(=O)(=O)C[C@H](N)C(=O)N3Cc2ccc(Cl)cc2)o1 [Example 98, (3R)-3-amino-5-[(4-chlorophenyl)methyl]-8-fluoro-7-[5-(o-tolyl)-1,3,4-oxadiazol-2-yl]-1,1-dioxo-2,3-dihydro-1λ^6,5-benzothiazepin-4-one] | 112 | 64.6
105 | N[C@H]1CS(=O)(=O)c2cc(F)c(-c3nnc(-c4ccc(F)cc4)o3)cc2N(Cc2ccc(Cl)cc2)C1=O [Example 99, (3R)-3-amino-5-[(4-chlorophenyl)methyl]-8-fluoro-7-[5-(4-fluorophenyl)-1,3,4-oxadiazol-2-yl]-1,1-dioxo-2,3-dihydro-1λ^6,5-benzothiazepin-4-one] | 112 | 82.2
484 | Cc1cccc(F)c1-c1nnc(-c2cc3c(cc2F)S(=O)(=O)C[C@H](N)C(=O)N3Cc2ccc(Cl)cc2)o1 [Example 100, (3R)-3-amino-5-[(4-chlorophenyl)methyl]-8-fluoro-7-[5-(2-fluoro-6-methyl-phenyl)-1,3,4-oxadiazol-2-yl]-1,1-dioxo-2,3-dihydro-1λ^6,5-benzothiazepin-4-one] | 89 | 49.6
72.2 | CC(C)Cc1nnc(-c2cc3c(cc2F)S(=O)(=O)C[C@H](N)C(=O)N3Cc2ccc(Cl)cc2)o1 [Example 101, (3R)-3-amino-5-[(4-chlorophenyl)methyl]-8-fluoro-7-(5-isobutyl-1,3,4-oxadiazol-2-yl)-1,1-dioxo-2,3-dihydro-1λ^6,5-benzothiazepin-4-one] | 121 | 49.1
> 10000 | CC1(c2nnc(-c3cc4c(cc3F)S(=O)(=O)C[C@H](N)C(=O)N4Cc3ccc(Cl)cc3)o2)CNC1 [Example 102, (3R)-3-amino-5-[(4-chlorophenyl)methyl]-8-fluoro-7-[5-(3-methylazetidin-3-yl)-1,3,4-oxadiazol-2-yl]-1,1-dioxo-2,3-dihydro-1λ^6,5-benzothiazepin-4-one] | 65 | 7690
583 | CC(C#N)c1nnc(-c2cc3c(cc2F)S(=O)(=O)C[C@H](N)C(=O)N3Cc2ccc(Cl)cc2)o1 (stereo partly drawn) [Example 103, 2-[5-[(3R)-3-amino-5-[(4-chlorophenyl)methyl]-8-fluoro-1,1,4-trioxo-2,3-dihydro-1λ^6,5-benzothiazepin-7-yl]-1,3,4-oxadiazol-2-yl]propanenitrile] | 102 | 213
277 | CC(C)(C#N)c1nnc(-c2cc3c(cc2F)S(=O)(=O)C[C@H](N)C(=O)N3Cc2ccc(Cl)cc2)o1 [Example 104, 2-methyl-2-[5-[(3R)-3-amino-5-[(4-chlorophenyl)methyl]-8-fluoro-1,1,4-trioxo-2,3-dihydro-1λ^6,5-benzothiazepin-7-yl]-1,3,4-oxadiazol-2-yl]propanenitrile] | 112 | 150
1170 | N[C@H]1CS(=O)(=O)c2cc(F)c(-c3nnc(C4CNCCC4(F)F)o3)cc2N(Cc2ccc(Cl)cc2)C1=O (stereo partly drawn) [Example 105, (3R)-3-amino-5-[(4-chlorophenyl)methyl]-7-[5-(4,4-difluoro-3-piperidyl)-1,3,4-oxadiazol-2-yl]-8-fluoro-1,1-dioxo-2,3-dihydro-1λ^6,5-benzothiazepin-4-one] | 31 | 4160
784 | Cc1ccc(-c2nnc(-c3cc4c(cc3F)S(=O)(=O)C[C@H](N)C(=O)N4Cc3ccc(Cl)cc3)o2)cc1 [Example 106, (3R)-3-amino-5-[(4-chlorophenyl)methyl]-8-fluoro-1,1-dioxo-7-[5-(p-tolyl)-1,3,4-oxadiazol-2-yl]-2,3-dihydro-1λ^6,5-benzothiazepin-4-one] | 111 | 254
188 | Cc1cccc(-c2nnc(-c3cc4c(cc3F)S(=O)(=O)C[C@H](N)C(=O)N4Cc3ccc(Cl)cc3)o2)c1 [Example 107, (3R)-3-amino-5-[(4-chlorophenyl)methyl]-8-fluoro-7-[5-(m-tolyl)-1,3,4-oxadiazol-2-yl]-1,1-dioxo-2,3-dihydro-1λ^6,5-benzothiazepin-4-one] | 134 | 955
498 | N[C@H]1CS(=O)(=O)c2cc(F)c(-c3nnc(-c4ccccc4F)o3)cc2N(Cc2ccc(Cl)cc2)C1=O [Example 108, (3R)-3-amino-5-[(4-chlorophenyl)methyl]-8-fluoro-7-[5-(2-fluorophenyl)-1,3,4-oxadiazol-2-yl]-1,1-dioxo-2,3-dihydro-1λ^6,5-benzothiazepin-4-one] | 117 | 1530
1500 | Cc1nc(-c2nnc(-c3cc4c(cc3F)S(=O)(=O)C[C@H](N)C(=O)N4Cc3ccc(Cl)cc3)o2)no1 [Example 109, (3R)-3-amino-5-[(4-chlorophenyl)methyl]-8-fluoro-7-[5-(5-methyl-1,2,4-oxadiazol-3-yl)-1,3,4-oxadiazol-2-yl]-1,1-dioxo-2,3-dihydro-1λ^6,5-benzothiazepin-4-one] | 86 | 1740
232 | N[C@H]1CS(=O)(=O)c2cc(F)c(-c3nnc(C4CC5(CCOC5)C4)o3)cc2N(Cc2ccc(Cl)cc2)C1=O (stereo partly drawn) [Example 110, (3R)-3-amino-5-[(4-chlorophenyl)methyl]-8-fluoro-7-[5-(6-oxaspiro[3.4]octan-2-yl)-1,3,4-oxadiazol-2-yl]-1,1-dioxo-2,3-dihydro-1λ^6,5-benzothiazepin-4-one] | 131 | 125
3130 | CC(C)(CN)c1nnc(-c2cc3c(cc2F)S(=O)(=O)C[C@H](N)C(=O)N3Cc2ccc(Cl)cc2)o1 [Example 111, (3R)-3-amino-7-[5-(2-amino-1,1-dimethyl-ethyl)-1,3,4-oxadiazol-2-yl]-5-[(4-chlorophenyl)methyl]-8-fluoro-1,1-dioxo-2,3-dihydro-1λ^6,5-benzothiazepin-4-one] | 97 | 556
3230 | N[C@H]1CS(=O)(=O)c2cc(F)c(-c3nnc(C4(C(F)F)CNC4)o3)cc2N(Cc2ccc(Cl)cc2)C1=O [Example 112, (3R)-3-amino-5-[(4-chlorophenyl)methyl]-7-[5-[3-(difluoromethyl)azetidin-3-yl]-1,3,4-oxadiazol-2-yl]-8-fluoro-1,1-dioxo-2,3-dihydro-1λ^6,5-benzothiazepin-4-one] | 124 | 1050
100 | CC1(c2nnc(-c3cc4c(cc3F)S(=O)(=O)C[C@H](N)C(=O)N4Cc3ccc(Cl)cc3)o2)CC1 [Example 113, (3R)-3-amino-5-[(4-chlorophenyl)methyl]-8-fluoro-7-[5-(1-methylcyclopropyl)-1,3,4-oxadiazol-2-yl]-1,1-dioxo-2,3-dihydro-1λ^6,5-benzothiazepin-4-one] | 106 | 107
756 | CC(C)N(C)C(=O)c1nnc(-c2cc3c(cc2F)S(=O)(=O)C[C@H](N)C(=O)N3Cc2ccc(Cl)cc2)o1 [Example 114, N-isopropyl-N-methyl-5-[(3R)-3-amino-5-[(4-chlorophenyl)methyl]-8-fluoro-1,1,4-trioxo-2,3-dihydro-1λ^6,5-benzothiazepin-7-yl]-1,3,4-oxadiazole-2-carboxamide] | 65 | > 10000
2210 | CC(CO)(CCl)c1nnc(-c2cc3c(cc2F)S(=O)(=O)C[C@H](N)C(=O)N3Cc2ccc(Cl)cc2)o1 (stereo partly drawn) [Example 115, (3R)-3-amino-7-[5-[1-(chloromethyl)-2-hydroxy-1-methyl-ethyl]-1,3,4-oxadiazol-2-yl]-5-[(4-chlorophenyl)methyl]-8-fluoro-1,1-dioxo-2,3-dihydro-1λ^6,5-benzothiazepin-4-one] | 127 | 495

SMILES | EC50 (primary human T-cells [2]) [nM] | Emax (primary human T-cells [1]) [%] | EC50 (primary human T-cells [1]) [nM]
N[C@H]1CS(=O)(=O)c2cc(F)c(-c3nnc(C(=O)N4[C@@H]5CCC[C@H]4CC5)o3)cc2N(Cc2ccc(Cl)cc2)C1=O [Example 96, (3R)-3-amino-5-[(4-chlorophenyl)methyl]-8-fluoro-1,1-dioxo-7-[5-[(1R,5S)-8-azabicyclo[3.2.1]octane-8-carbonyl]-1,3,4-oxadiazol-2-yl]-2,3-dihydro-1λ^6,5-benzothiazepin-4-one] | 604 | 46 | > 2730
